Drawing on patent publication US20230295166A1, “ATR INHIBITORS AND USES THEREOF” (ANTENGENE DISCOVERY LIMITED, priority 2020, published 2023), this text covers IC50 for 21 compounds.

One assay concerns the target ATR kinase (Homo sapiens (Human), UniProt Q13535). The assay is described as follows: ATR inhibition assay (mobility shift assay, phosphorylation of FAM-RAD17). Type of assay: biochemical. Particulars: ATR kinase (Eurofins), substrate FAM-RAD17, mobility shift. How it is done: Assay 1: ATR Inhibition Assay
Detection of ATR kinase activity utilized the Mobility shift assay to measure the phosphorylation of the substrate protein FAM-RAD17 (GL, Cat. No. 514318, Lot. No. P19042-MJ524315). The assay was developed and conducted at Chempartner. All the test compounds were dissolved in 100% DMSO at concentration of 20 mM, then prepare compounds and conducted the assay as follows: • 1) Transfer 80 μl 20 mM compound to 40 μl of 100% DMSO in a 96-well plate. • 2) Serially dilute the compound by transferring 20 μl to 60 μl of 100% DMSO in the next well and so forth for a total of 10 concentrations. • 3) Add 100 μl of 100% DMSO to two empty wells for no compound control and no enzyme control in the same 96-well plate. Mark the plate as source plate. • 4) Transfer 40 μl of compound from source plate to a new 384-well plate as the intermediate plate. • 5) Transfer 60 nl compounds to assay plate by Echo. • 6) Add ATR kinase (Eurofins, Cat. No. 14-953, Lot. No. D14 JP007N) into Kinase base buffer (50 mM HEPES, pH 7.5; 0.0015% Brij-35; 0.01% Triton) to prepare 2× enzyme solution, then add 10 μl of 2× enzyme solution to each well of the 384-well assay plate, incubate at room temperature for 10 min. • 7) Add FAM-RAD17 and ATP (Sigma, Cat. No. A7699-1G, CAS No. 987-65-5) in the kinase base buffer to prepare 2×peptide solution, then add 10 μl to the assay plate. • 8) Incubate at 28° C. for specified period of time. Add 40 μl of stop buffer (100 mM HEPES, pH 7.5; 0.015% Brij-35; 0.2% Coating Reagent #3; 50 mM EDTA) to stop reaction. • 9) Collect data on Caliper. Convert conversion values to inhibition values.
Percent inhibition=(max−conversion)/(max−min)*100 wherein “max” stands for DMSO control; “min” stands for low control.
Fit the data in XLFit excel add-in version 5.4.0.8 to obtain IC50 values. Equation used is:
Y=Bottom+(Top−Bottom)/(1+(IC50/X)^HillSlope) wherein X means concentration in a format not transformed to logarithms.

The test system of a further assay is LoVo (CCL-229) cells. The experiment in a line: Tumor cell anti-proliferation assay (CTG assay). The assay is classed as cell-based. Particulars: LoVo human colorectal cancer cells, 96 h, CellTiter-Glo. In a few lines:
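Cells seeded and held 20–24 h, then exposed to 3-fold serial dilutions of compound (final DMSO 0.5%) for 96 h at 37 °C, 5% CO2. Viability measured by CellTiter-Glo luminescence; IC50 and GI50 from a 4-parameter logistic fit.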

Structures are written as SMILES. Where only a bound is given, the exact number is not on record here.

Sequence of ATR kinase (Q13535 whole entry): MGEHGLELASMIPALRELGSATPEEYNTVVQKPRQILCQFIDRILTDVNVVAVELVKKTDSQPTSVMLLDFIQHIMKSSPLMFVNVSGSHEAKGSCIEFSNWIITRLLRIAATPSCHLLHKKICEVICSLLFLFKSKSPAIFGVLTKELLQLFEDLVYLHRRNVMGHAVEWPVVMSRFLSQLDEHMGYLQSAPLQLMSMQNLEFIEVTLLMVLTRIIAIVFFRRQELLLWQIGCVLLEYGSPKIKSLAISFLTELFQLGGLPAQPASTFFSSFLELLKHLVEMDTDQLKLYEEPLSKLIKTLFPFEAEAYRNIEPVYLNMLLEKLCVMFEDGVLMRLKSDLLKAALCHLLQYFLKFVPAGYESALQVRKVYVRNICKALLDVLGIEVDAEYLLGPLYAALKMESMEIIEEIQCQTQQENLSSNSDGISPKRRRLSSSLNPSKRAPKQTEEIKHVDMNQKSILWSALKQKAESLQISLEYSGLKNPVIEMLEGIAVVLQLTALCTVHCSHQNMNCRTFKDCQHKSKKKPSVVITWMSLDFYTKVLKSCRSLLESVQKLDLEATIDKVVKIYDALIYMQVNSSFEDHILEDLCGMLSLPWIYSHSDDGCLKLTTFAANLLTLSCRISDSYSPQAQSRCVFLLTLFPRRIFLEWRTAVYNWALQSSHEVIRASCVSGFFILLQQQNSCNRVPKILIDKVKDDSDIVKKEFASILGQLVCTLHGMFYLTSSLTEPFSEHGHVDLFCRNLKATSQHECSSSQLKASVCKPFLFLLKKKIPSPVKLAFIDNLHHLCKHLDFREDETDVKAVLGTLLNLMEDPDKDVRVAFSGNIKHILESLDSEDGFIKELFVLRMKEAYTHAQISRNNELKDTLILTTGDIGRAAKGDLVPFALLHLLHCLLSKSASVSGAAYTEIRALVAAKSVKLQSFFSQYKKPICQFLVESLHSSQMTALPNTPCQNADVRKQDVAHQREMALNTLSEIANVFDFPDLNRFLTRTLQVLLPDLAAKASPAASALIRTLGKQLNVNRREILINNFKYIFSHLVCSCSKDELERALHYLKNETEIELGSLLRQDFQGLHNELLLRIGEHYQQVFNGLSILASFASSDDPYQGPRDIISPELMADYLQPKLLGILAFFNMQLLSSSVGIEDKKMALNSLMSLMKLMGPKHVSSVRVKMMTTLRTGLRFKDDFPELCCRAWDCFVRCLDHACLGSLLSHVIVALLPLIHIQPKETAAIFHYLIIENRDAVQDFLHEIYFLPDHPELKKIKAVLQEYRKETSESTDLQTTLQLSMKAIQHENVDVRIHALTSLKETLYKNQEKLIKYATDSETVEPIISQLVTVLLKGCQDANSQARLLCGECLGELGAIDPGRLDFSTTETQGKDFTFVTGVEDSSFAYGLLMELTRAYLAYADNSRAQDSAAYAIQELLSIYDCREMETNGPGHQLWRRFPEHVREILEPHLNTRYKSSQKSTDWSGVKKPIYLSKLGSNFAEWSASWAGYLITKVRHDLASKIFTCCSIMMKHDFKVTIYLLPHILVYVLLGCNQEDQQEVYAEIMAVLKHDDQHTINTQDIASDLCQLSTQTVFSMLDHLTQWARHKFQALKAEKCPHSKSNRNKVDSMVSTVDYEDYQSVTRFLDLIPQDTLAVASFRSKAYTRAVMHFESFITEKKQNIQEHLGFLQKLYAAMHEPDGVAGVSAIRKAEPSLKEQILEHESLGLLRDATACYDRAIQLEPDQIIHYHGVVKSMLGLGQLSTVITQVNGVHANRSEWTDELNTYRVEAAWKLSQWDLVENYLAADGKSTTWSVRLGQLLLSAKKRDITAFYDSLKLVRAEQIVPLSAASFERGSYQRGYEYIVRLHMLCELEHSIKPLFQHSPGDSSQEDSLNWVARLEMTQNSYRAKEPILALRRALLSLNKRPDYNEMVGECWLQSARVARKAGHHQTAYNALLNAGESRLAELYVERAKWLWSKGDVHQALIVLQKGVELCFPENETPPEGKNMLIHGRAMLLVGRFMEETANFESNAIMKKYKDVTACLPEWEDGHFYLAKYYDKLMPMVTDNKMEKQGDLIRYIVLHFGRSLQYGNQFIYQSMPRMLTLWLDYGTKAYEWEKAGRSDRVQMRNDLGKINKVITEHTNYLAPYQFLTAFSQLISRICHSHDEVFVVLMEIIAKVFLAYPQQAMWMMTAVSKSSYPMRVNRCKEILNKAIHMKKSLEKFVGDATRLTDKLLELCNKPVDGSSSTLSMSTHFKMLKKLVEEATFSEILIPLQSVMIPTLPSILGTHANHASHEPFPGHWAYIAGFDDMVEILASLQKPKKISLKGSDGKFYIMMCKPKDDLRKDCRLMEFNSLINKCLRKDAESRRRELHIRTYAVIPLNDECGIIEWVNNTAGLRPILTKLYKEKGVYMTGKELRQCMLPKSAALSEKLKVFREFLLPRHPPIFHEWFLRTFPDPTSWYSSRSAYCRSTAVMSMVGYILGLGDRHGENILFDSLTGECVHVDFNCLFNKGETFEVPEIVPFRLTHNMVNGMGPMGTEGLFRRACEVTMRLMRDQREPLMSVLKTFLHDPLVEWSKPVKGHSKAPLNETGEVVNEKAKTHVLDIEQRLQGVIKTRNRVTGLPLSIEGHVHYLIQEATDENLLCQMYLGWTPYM
Sequence of ATR kinase (Q8WXE1 whole entry partner): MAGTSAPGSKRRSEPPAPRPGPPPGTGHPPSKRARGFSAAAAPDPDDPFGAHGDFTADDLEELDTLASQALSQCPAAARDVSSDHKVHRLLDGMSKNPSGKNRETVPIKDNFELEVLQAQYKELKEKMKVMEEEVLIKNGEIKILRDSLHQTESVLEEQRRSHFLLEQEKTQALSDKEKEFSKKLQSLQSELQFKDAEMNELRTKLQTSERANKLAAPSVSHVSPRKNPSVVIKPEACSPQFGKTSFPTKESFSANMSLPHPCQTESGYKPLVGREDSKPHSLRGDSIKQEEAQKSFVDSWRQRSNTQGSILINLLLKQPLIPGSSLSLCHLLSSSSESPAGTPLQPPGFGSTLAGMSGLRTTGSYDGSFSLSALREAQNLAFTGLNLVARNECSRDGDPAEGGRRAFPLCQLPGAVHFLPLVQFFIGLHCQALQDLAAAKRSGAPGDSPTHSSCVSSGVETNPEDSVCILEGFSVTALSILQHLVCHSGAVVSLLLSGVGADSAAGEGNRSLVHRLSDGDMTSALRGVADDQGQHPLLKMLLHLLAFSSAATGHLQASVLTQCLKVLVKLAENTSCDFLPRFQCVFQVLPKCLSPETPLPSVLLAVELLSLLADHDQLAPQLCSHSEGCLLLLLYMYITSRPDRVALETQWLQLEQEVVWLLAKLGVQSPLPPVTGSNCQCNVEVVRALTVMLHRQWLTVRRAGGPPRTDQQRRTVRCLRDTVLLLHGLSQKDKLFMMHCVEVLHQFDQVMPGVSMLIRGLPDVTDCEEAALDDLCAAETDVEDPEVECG

In the case of `Cc1cc(-c2nsc3c(C4(S(C)(=O)=O)CC4)cc(N4CCOC[C@H]4C)nc23)[nH]n1` [Example 50, (R)-3-methyl-4-(3-(3-methyl-1H-pyrazol-5-yl)-7-(1-(methylsulfonyl)cyclopropyl)isothiazolo[4,5-b]pyridin-5-yl)morpholine], the IC50 at ATR kinase is less than 0.1 µM; in the assay with LoVo (CCL-229) cells, 0.017 µM.

For `C[C@@H]1COCCN1c1cc(C2(C#N)CC2)c2snc(-c3ccn[nH]3)c2n1` [Example 51, (R)-1-(5-(3-methylmorpholino)-3-(1H-pyrazol-5-yl)isothiazolo[4,5-b]pyridin-7-yl)cyclopropane-1-carbonitrile], the IC50 at ATR kinase was less than 0.1 µM; in the assay with LoVo (CCL-229) cells, 0.0159 µM.

As for `Cc1cc(-c2nsc3c(C4(C#N)CC4)cc(N4CCOC[C@H]4C)nc23)[nH]n1` [Example 52, (R)-1-(3-(3-methyl-1H-pyrazol-5-yl)-5-(3-methylmorpholino)isothiazolo [4,5-b]pyridin-7-yl)cyclopropane-1-carbonitrile], the IC50 was less than 0.1 µM on ATR kinase and 0.0177 µM in the assay on LoVo (CCL-229) cells.

Regarding `C[C@@H]1COCCN1c1cc(C(C)(C)C#N)c2snc(-c3ccn[nH]3)c2n1` [Example 53, (R)-2-methyl-2-(5-(3-methylmorpholino)-3-(1H-pyrazol-5-yl)isothiazolo [4,5-b]pyridin-7-yl)propanenitrile], the IC50 at ATR kinase was less than 0.1 µM; in the assay on LoVo (CCL-229) cells it was 0.0128 µM.

With `C[C@@H]1COCCN1c1cc(C(C)(C)S(C)(=O)=O)c2snc(-c3ccn[nH]3)c2n1` [Example 55, (R)-3-methyl-4-(7-(2-(methylsulfonyl)propan-2-yl)-3-(1H-pyrazol-5-yl)isothiazolo[4,5-b]pyridin-5-yl)morpholine], the figures for the IC50 at ATR kinase and with LoVo (CCL-229) cells were less than 0.1 µM and 0.0137 µM, respectively.

In the case of `Cc1cc(-c2nsc3c(C(C)(C)S(C)(=O)=O)cc(N4CCOC[C@H]4C)nc23)[nH]n1` [Example 56, (R)-3-methyl-4-(3-(3-methyl-1H-pyrazol-5-yl)-7-(2-(methylsulfonyl)propan-2-yl)isothiazolo[4,5-b]pyridin-5-yl)morpholine], the IC50 at ATR kinase is less than 0.1 µM; with LoVo (CCL-229) cells it was 0.019 µM.

As for `C[C@@H]1COCCN1c1cc(C2(C#N)CCCC2)c2snc(-c3ccn[nH]3)c2n1` [Example 57, (R)-1-(5-(3-methylmorpholino)-3-(1H-pyrazol-5-yl)isothiazolo[4,5-b]pyridin-7-yl)cyclopentane-1-carbonitrile], the half-maximal inhibitory concentration (IC50) on ATR kinase is less than 0.1 µM; in the assay on LoVo (CCL-229) cells, 0.0025 µM.

As for `C[C@@H]1COCCN1c1cc(C2(C#N)CCCCC2)c2snc(-c3ccn[nH]3)c2n1` [Example 58, (R)-1-(5-(3-methylmorpholino)-3-(1H-pyrazol-5-yl)isothiazolo[4,5-b]pyridin-7-yl)cyclohexane-1-carbonitrile], the IC50 was less than 0.1 µM on ATR kinase and less than 0.001 µM in the assay with LoVo (CCL-229) cells.

Regarding `C[C@@H]1COCCN1c1cc(C2(C#N)CCCCC2)c2cnc(-c3ccn[nH]3)n2n1` [Example 60, (R)-1-(2-(3-methylmorpholino)-7-(1H-pyrazol-5-yl)imidazo[1,5-b]pyridazin-4-yl)cyclohexane-1-carbonitrile], the IC50 at ATR kinase was less than 0.1 µM; with LoVo (CCL-229) cells it was 0.0041 µM.

Consider `Cc1cc(-c2nc(Cl)c3c(-c4ccnn4C)cc(N4CCOC[C@H]4C)nn23)[nH]n1` [Example 62, (3R)-4-[5-chloro-4-(1-methyl-1H-pyrazol-5-yl)-7-(3-methyl-1H-pyrazol-5-yl)imidazo[1,5-b]pyridazin-2-yl]-3-methylmorpholine], for which the IC50 was less than 0.1 µM on ATR kinase and 0.0146 µM in the assay on LoVo (CCL-229) cells.

`Cc1cc(-c2ncc3c(C4(C#N)CC4)cc(N4CCOC[C@H]4C)nn23)[nH]n1` [Example 63, (R)-1-(7-(3-methyl-1H-pyrazol-5-yl)-2-(3-methylmorpholino)imidazo[1,5-b]pyridazin-4-yl)cyclopropane-1-carbonitrile]: the IC50 on ATR kinase was less than 0.1 µM; in the assay with LoVo (CCL-229) cells it was 0.0389 µM.

With `Cc1cc(-c2ncc3c(C(C)(C)C#N)cc(N4CCOC[C@H]4C)nn23)[nH]n1` [Example 64, (R)-2-methyl-2-(7-(3-methyl-1H-pyrazol-5-yl)-2-(3-methylmorpholino)imidazo[1,5-b]pyridazin-4-yl)propanenitrile], the values for the IC50 on ATR kinase and with LoVo (CCL-229) cells were less than 0.1 µM and 0.0151 µM, respectively.

In the case of `C[C@@H]1COCCN1c1cc(S(=O)(=O)C2CC2)c2snc(-c3ccn[nH]3)c2n1` [Example 75, (R)-4-(7-(cyclopropylsulfonyl)-3-(1H-pyrazol-5-yl)isothiazolo[4,5-b]pyridin-5-yl)-3-methylmorpholine], the IC50 at ATR kinase is less than 0.1 µM; in the assay on LoVo (CCL-229) cells it was 0.0153 µM.

Consider `C[C@@H]1COCCN1c1cc(N2CCCCS2(=O)=O)c2snc(-c3ccn[nH]3)c2n1` [Example 76, (R)-2-(5-(3-methylmorpholino)-3-(1H-pyrazol-5-yl)isothiazolo[4,5-b]pyridin-7-yl)-1,2-thiazinane 1,1-dioxide], for which the IC50 at ATR kinase was less than 0.1 µM; in the assay with LoVo (CCL-229) cells, 0.0243 µM.

For `Cc1cc(-c2nsc3c(C4(C#N)CCCC4)cc(N4CCOC[C@H]4C)nc23)[nH]n1` [Example 80, (R)-1-(3-(3-methyl-1H-pyrazol-5-yl)-5-(3-methylmorpholino)isothiazolo[4,5-b]pyridin-7-yl)cyclopentane-1-carbonitrile], the figures for the IC50 on ATR kinase and with LoVo (CCL-229) cells were less than 0.1 µM and 0.01 µM, respectively.

Regarding `Cc1cc(-c2nsc3c(C4(C#N)CCCCC4)cc(N4CCOC[C@H]4C)nc23)[nH]n1` [Example 81, (R)-1-(3-(3-methyl-1H-pyrazol-5-yl)-5-(3-methylmorpholino)isothiazolo[4,5-b]pyridin-7-yl)cyclohexane-1-carbonitrile], the IC50 on ATR kinase was less than 0.1 µM; in the assay on LoVo (CCL-229) cells it was 0.01 µM.

Regarding `C[C@@H]1COCCN1c1cc(C2(C#N)CCOCC2)c2snc(-c3ccn[nH]3)c2n1` [Example 83, (R)-4-(5-(3-methylmorpholino)-3-(1H-pyrazol-5-yl)isothiazolo[4,5-b]pyridin-7-yl)tetrahydro-2H-pyran-4-carbonitrile], the IC50 on ATR kinase was less than 0.1 µM; in the assay with LoVo (CCL-229) cells, 0.014 µM.

With `Cc1cc(-c2nsc3c(C4(C#N)CCOCC4)cc(N4CCOC[C@H]4C)nc23)[nH]n1` [Example 84, (R)-4-(3-(3-methyl-1H-pyrazol-5-yl)-5-(3-methylmorpholino)isothiazolo[4,5-b]pyridin-7-yl)tetrahydro-2H-pyran-4-carbonitrile], the IC50 at ATR kinase was less than 0.1 µM; in the assay with LoVo (CCL-229) cells, 0.009 µM.

For the compound `Cc1cc(-c2nsc3c(S(=O)(=O)C4CC4)cc(N4CCOC[C@H]4C)nc23)[nH]n1` [Example 85, (R)-4-(7-(cyclopropylsulfonyl)-3-(3-methyl-1H-pyrazol-5-yl)isothiazolo[4,5-b]pyridin-5-yl)-3-methylmorpholine], the IC50 at ATR kinase is less than 0.1 µM; with LoVo (CCL-229) cells, 0.004 µM.

`Cc1cc(-c2nsc3c(C4(C(N)=O)CCCC4)cc(N4CCOC[C@H]4C)nc23)[nH]n1` [Example 87, (R)-1-(3-(3-methyl-1H-pyrazol-5-yl)-5-(3-methylmorpholino)isothiazolo[4,5-b]pyridin-7-yl)cyclopentane-1-carboxamide]: the IC50 on ATR kinase is less than 0.1 µM; with LoVo (CCL-229) cells it was 0.003 µM.

As for `C[C@@H]1COCCN1c1cc(C2(C(N)=O)CCCCC2)c2snc(-c3ccn[nH]3)c2n1` [Example 89, 1-{5-[(3R)-3-methylmorpholin-4-yl]-3-(1H-pyrazol-5-yl)-[1,2]thiazolo[4,5-b]pyridin-7-yl}cyclohexane-1-carboxamide], the figures for the IC50 at ATR kinase and in the assay with LoVo (CCL-229) cells were less than 0.1 µM and less than 0.001 µM, respectively.
